From patent US8519163B2, “Anti-tumor activity of AECHL-1, novel triterpenoid isolated from Ailanthus excelsa in vitro and in vivo” (National Centre for Cell Science, priority 2008, dated 2013)
Values joined by “and” are separate entries in the source; they are usually repeats but may differ in a detail not shown here. Equal entries are not always repeated.

Key:
MCF-7 cells = assay: Cell cycle analysis by flow cytometry; format: cell-based, human; settings: for Phase of cell cycle (% of cells) G1 / Phase of cell cycle (% of cells) G2/M / Phase of cell cycle (% of cells) S / Phase of cell cycle (% of cells) Sub G0: 24 h
Protocol: (§1) The cell cycle analysis of MCF-7, B16F10 MDA-MB-231 and PC3 cells was done by flow cytometry. […] Cells were harvested with trypsin (0.05%), 0.02% EDTA, 0.05% glucose and a single-cell suspension was prepared. Cells were washed and were pelleted by centrifugation (1000×g for 2 min) and fixed in 70% ethanol while vortexing and stored at 4° C. for 1 hour. Fixed cells were pelleted by centrifugation, to remove ethanol and washed with PBS. Cells were re-suspended in PBS containing 50 μg/ml propidium iodide, 0.1 g/L RNase and 1% BSA, incubated for 30 min at 37° C. in the dark, and analyzed with flow cytometry (FACS Vantage-BD Sciences, USA) equipped with an argon laser at 488 nm. The data was analyzed using Cell Quest software for determining the percent population in different phases of cell cycle.

MDA-MB-231 cells = assay: Cell cycle analysis by flow cytometry; format: cell-based, human; settings: for Phase of cell cycle (% of cells) G1 / Phase of cell cycle (% of cells) G2/M / Phase of cell cycle (% of cells) S / Phase of cell cycle (% of cells) Sub G0: 24 h
Protocol: as §1

PC3 cells = assay: Cell cycle analysis by flow cytometry; format: cell-based, human; settings: for Phase of cell cycle (% of cells) G1 / Phase of cell cycle (% of cells) G2/M / Phase of cell cycle (% of cells) S / Phase of cell cycle (% of cells) Sub G0: 24 h
Protocol: as §1

[1] = tested on: HEK 293 (Human embryonic kidney cell line); assay: Cell viability assay (MTT); format: cell-based; settings: HEK 293, compared with tumor cell lines
Protocol: The cytotoxic effect of AECHL-1 on the HEK 293, B16F10, PC3, MCF 7 and MDA-MB-231 cells was measured by MTT assay as described in previous studies. The cells were dispensed in 96-well, flat bottom microtiter plates (Becton Dickinson Labware) at a density of 5×10^3 cells each well. […] MTT [3-(4,5-dimethylthiazol-2yl)-2,5-diphenyl tetrazolium bromide] solution (5 mg/ml in PBS) was added at the end of experiment to each well to a final concentration of 0.5 mg/ml, and the cultures were incubated for further 4 h. The resulting formazan crystals were dissolved in 100 μl dimethylsulfoxide (DMSO) and absorbance was measured in a microplate reader at 570 nm (Molecular Devices, Spectra MAX 250). The cytotoxic effect was expressed as a relative percentage of inhibition calculated as follows: Relative inhibition(%)=[(A570 control−A570 AECHL-1)A570 control]×100 Cell Proliferation Assay

[2] = tested on: cellular microtubule network; assay: Immunocytochemistry, microtubule network in MCF-7 cells; format: cell-based, human; settings: paclitaxel 1-20 μM, AECHL-1 2-40 μM, 24 h, confocal microscopy
Protocol: Immunocytochemistry was performed as described previously. […] Cells were incubated with primary anti-p53 antibodies (1:100; Abcam) and anti-α-tubulin antibodies (1:10000; Sigma chemical Co.) for 1 hour at room temperature. After washing with PBS, cells were incubated with CY2-conjugated secondary antibodies (1:200; Chemicon, Germany) and Alexa-conjugated secondary antibodies (1:10000; Sigma, St. Louis, Mo.) for 45 minutes and nuclear staining was done with DAPI. Images were captured under confocal microscope.
The tumor suppressor p53 plays a critical role in preventing human cancer formation. It translocates into the nucleus and works as a transcription factor by upregulating cell cycle regulatory proteins and induces cell cycle arrest and/or programmed cell death (apoptosis) (11). […] After 24 h of incubation, the p53 translocation in the nucleus (green fluorescence) and microtubule network (red fluorescence) was visualized by confocal microscopy.

B16F10 melanoma cells = assay: In vivo allograft tumor model; parameters: species or system C57B1/6 mice; settings: for tumor weight to body weight ratio: after 12 days treatment, vs control (p<0.01); for tumor size reduced by / tumor volume on day 24: B16F10 allograft; for tumor size reduced by: day 18; for histological examination of tumor tissue: C57 mice
Protocol: (§2) The data reported for tumor volumes are expressed as mean±SEM. Statistical differences were determined by ANOVA and post test applied was Tukey-Kramer multiple comparison Test. For Tumor to body weight ratio post test applied was Dunnett multiple comparisons test.

MCF-7 = assay: In vivo xenograft tumor model; parameters: species or system athymic nude mice; settings: for tumor size reduced by: MCF-7 xenograft
Protocol: as §2

Compound: C=C1C(OCC)C2(O)OCC34C(=C(C)c5c(C)cc(O)c(OCC)c5C23)OC(=O)C(OC(=O)C(C)(O)CC)C14 (centres unmarked) [AECHL-1]
- Phase of cell cycle (% of cells) G1 (MCF-7 cells; MCF-7, 4 μM): 35.04%
- Phase of cell cycle (% of cells) G2/M (MCF-7 cells; MCF-7, 4 μM): 36.65%
- Phase of cell cycle (% of cells) S (MCF-7 cells; MCF-7, 4 μM): 27.20%
- Phase of cell cycle (% of cells) Sub G0 (MCF-7 cells; MCF-7, 4 μM): 1.61%
- Phase of cell cycle (% of cells) G1 (MCF-7 cells; MCF-7, 10 μM): 27.85%
- Phase of cell cycle (% of cells) G2/M (MCF-7 cells; MCF-7, 10 μM): 36.78%
- Phase of cell cycle (% of cells) S (MCF-7 cells; MCF-7, 10 μM): 34.19%
- Phase of cell cycle (% of cells) Sub G0 (MCF-7 cells; MCF-7, 10 μM): 1.99%
- Phase of cell cycle (% of cells) G1 (MCF-7 cells; MCF-7, 20 μM): 29.68%
- Phase of cell cycle (% of cells) G2/M (MCF-7 cells; MCF-7, 20 μM): 31.98%
- Phase of cell cycle (% of cells) S (MCF-7 cells; MCF-7, 20 μM): 37.44%
- Phase of cell cycle (% of cells) Sub G0 (MCF-7 cells; MCF-7, 20 μM): 1.81%
- Phase of cell cycle (% of cells) G1 (MCF-7 cells; MCF-7, 40 μM): 36.26%
- Phase of cell cycle (% of cells) G2/M (MCF-7 cells; MCF-7, 40 μM): 29.42%
- Phase of cell cycle (% of cells) S (MCF-7 cells; MCF-7, 40 μM): 32.50%
- Phase of cell cycle (% of cells) Sub G0 (MCF-7 cells; MCF-7, 40 μM): 2.55%
- % of cells in G0/G1 phase (MCF-7 cells; MCF-7, 100 μM): 36.26%
- cell count in S-G2/M phase (MCF-7 cells; MCF-7, 100 μM, control 45.13): 69.4%
- phase of cell growth arrest (MCF-7 cells; MCF-7 cells): S-G2/M phase
- Phase of cell cycle (% of cells) G1 (MDA-MB-231 cells; MDA-231, 10 μM): 43.03%
- Phase of cell cycle (% of cells) G2/M (MDA-MB-231 cells; MDA-231, 10 μM): 32.21%
- Phase of cell cycle (% of cells) S (MDA-MB-231 cells; MDA-231, 10 μM): 24.06%
- Phase of cell cycle (% of cells) Sub G0 (MDA-MB-231 cells; MDA-231, 10 μM): 1.03%
- Phase of cell cycle (% of cells) G1 (MDA-MB-231 cells; MDA-231, 20 μM): 33.18%
- Phase of cell cycle (% of cells) G2/M (MDA-MB-231 cells; MDA-231, 20 μM): 38.01%
- Phase of cell cycle (% of cells) S (MDA-MB-231 cells; MDA-231, 20 μM): 28.63%
- Phase of cell cycle (% of cells) Sub G0 (MDA-MB-231 cells; MDA-231, 20 μM): 0.95%
- Phase of cell cycle (% of cells) G1 (MDA-MB-231 cells; MDA-231, 40 μM): 26.66%
- Phase of cell cycle (% of cells) G2/M (MDA-MB-231 cells; MDA-231, 40 μM): 45.14% and 45.15%
- Phase of cell cycle (% of cells) S (MDA-MB-231 cells; MDA-231, 40 μM): 28.12%
- Phase of cell cycle (% of cells) Sub G0 (MDA-MB-231 cells; MDA-231, 40 μM): 0.54%
- Phase of cell cycle (% of cells) G1 (MDA-MB-231 cells; MDA-231, 100 μM): 22.82%
- Phase of cell cycle (% of cells) G2/M (MDA-MB-231 cells; MDA-231, 100 μM): 46.17%
- Phase of cell cycle (% of cells) S (MDA-MB-231 cells; MDA-231, 100 μM): 30.99%
- Phase of cell cycle (% of cells) Sub G0 (MDA-MB-231 cells; MDA-231, 100 μM): 0.58%
- phase of cell growth arrest (MDA-MB-231 cells; MDA-MB 231 cells): S-G2/M phase
- Phase of cell cycle (% of cells) G1 (PC3 cells; PC3, 10 μM): 50.74%
- Phase of cell cycle (% of cells) G2/M (PC3 cells; PC3, 10 μM): 30.94%
- Phase of cell cycle (% of cells) S (PC3 cells; PC3, 10 μM): 16.21%
- Phase of cell cycle (% of cells) Sub G0 (PC3 cells; PC3, 10 μM): 1.66%
- Phase of cell cycle (% of cells) G1 (PC3 cells; PC3, 20 μM): 48.96%
- Phase of cell cycle (% of cells) G2/M (PC3 cells; PC3, 20 μM): 34.99%
- Phase of cell cycle (% of cells) S (PC3 cells; PC3, 20 μM): 13.99%
- Phase of cell cycle (% of cells) Sub G0 (PC3 cells; PC3, 20 μM): 1.79%
- Phase of cell cycle (% of cells) G1 (PC3 cells; PC3, 40 μM): 44.26%
- Phase of cell cycle (% of cells) G2/M (PC3 cells; PC3, 40 μM): 33.82%
- Phase of cell cycle (% of cells) S (PC3 cells; PC3, 40 μM): 17.71%
- Phase of cell cycle (% of cells) Sub G0 (PC3 cells; PC3, 40 μM): 4.14%
- Phase of cell cycle (% of cells) G1 (PC3 cells; PC3, 100 μM): 42.92%
- Phase of cell cycle (% of cells) G2/M (PC3 cells; PC3, 100 μM): 35.37%
- Phase of cell cycle (% of cells) S (PC3 cells; PC3, 100 μM): 18.25%
- Phase of cell cycle (% of cells) Sub G0 (PC3 cells; PC3, 100 μM): 3.36%
- cell count in S-G2/M phase (PC3 cells; PC3, 100 μM, vehicle 45.41%): 53.62%
- phase of cell growth arrest (PC3 cells; PC3 cells): S-G2/M phase
- cytotoxicity in normal cells [1]: less cytotoxicity
- effect on microtubule network [2]: thickening and increased density of microtubules
- tumor weight to body weight ratio (B16F10 melanoma cells; 50 μg): significant reduction
- tumor weight to body weight ratio (B16F10 melanoma cells; 100 μg): significant reduction
- tumor size reduced by (B16F10 melanoma cells; 50 μg intra-tumor for 12 days): 44.303±5.20%
- tumor volume on day 24 (B16F10 melanoma cells; 50 μg): increased
- tumor size reduced by (B16F10 melanoma cells; 100 μg intra-tumor for 12 days): 51.014±1.27%
- tumor volume on day 24 (B16F10 melanoma cells; 100 μg): increased
- histological examination of tumor tissue (B16F10 melanoma cells; 50 μg): Tumor cell density was found to be decreased with occurrence of picnotic/necrotic cells in the center of the tumor
- histological examination of tumor tissue (B16F10 melanoma cells; 100 μg): increase in necrotic nuclei through out the tumor area, with disappearance of neovasulization and hemorrhagic areas
- tumor size reduced by (MCF-7; 5 μg/0.05 ml intra-tumor for 10 days): 35.72±0.05%
- tumor size reduced by (MCF-7; 10 μg/0.05 ml intra-tumor for 10 days): 28.55±0.06%
- tumor size reduced by (MCF-7; 20 μg/0.05 ml intra-tumor for 10 days): 4.1±0.27%
- histological examination of tumor tissue (MCF-7; nude mice, 5 μg): decreased tumor cell density
